Laboratory results from US10947289B2, “Glyco-modified atrial natriuretic peptide” (priority 2013, dated 2021).

Columns and labels:
[1] = molecular target: T1, human GC-A (Homo sapiens, UniProt P16066); experiment: cGMP elevating activity in CHO/human GC-A cells (Test Example 1); type: cell-based
T1 construct: expressed in transfected cells; host or cells: CHO cells
T1 sequence (P16066 33-1061): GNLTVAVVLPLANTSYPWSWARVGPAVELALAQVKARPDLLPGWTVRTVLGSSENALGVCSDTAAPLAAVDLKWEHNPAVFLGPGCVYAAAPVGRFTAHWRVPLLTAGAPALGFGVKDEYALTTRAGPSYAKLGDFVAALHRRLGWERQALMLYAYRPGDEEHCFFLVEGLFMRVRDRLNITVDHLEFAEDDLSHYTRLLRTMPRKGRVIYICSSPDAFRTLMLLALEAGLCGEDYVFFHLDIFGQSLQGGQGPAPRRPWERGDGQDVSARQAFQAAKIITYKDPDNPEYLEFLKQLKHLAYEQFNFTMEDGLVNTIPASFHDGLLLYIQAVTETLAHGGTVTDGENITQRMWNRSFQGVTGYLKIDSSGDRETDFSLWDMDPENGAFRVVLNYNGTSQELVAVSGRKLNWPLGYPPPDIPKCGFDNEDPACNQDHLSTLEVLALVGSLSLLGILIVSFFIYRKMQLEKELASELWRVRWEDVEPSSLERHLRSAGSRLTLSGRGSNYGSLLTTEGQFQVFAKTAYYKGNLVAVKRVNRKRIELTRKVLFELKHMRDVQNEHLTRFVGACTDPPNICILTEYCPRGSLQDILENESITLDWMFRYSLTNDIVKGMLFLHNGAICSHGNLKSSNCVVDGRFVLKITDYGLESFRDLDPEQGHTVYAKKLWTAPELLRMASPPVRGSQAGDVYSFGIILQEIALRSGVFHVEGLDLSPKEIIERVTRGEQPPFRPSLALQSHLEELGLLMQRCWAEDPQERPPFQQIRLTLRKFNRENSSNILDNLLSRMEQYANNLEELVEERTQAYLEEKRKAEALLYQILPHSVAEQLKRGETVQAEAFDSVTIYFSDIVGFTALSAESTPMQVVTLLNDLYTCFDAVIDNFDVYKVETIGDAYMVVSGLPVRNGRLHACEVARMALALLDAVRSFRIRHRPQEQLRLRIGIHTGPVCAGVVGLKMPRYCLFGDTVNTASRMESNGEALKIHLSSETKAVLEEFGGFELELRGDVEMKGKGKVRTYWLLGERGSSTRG
In short: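 cGMP in lysates was read by HTRF after a 15 min peptide exposure of GC-A-expressing CHO cells in a CO2 incubator, following 10 min room-temperature preincubation with 1.6 mM IBMX in KRB. T/C values were normalised between solvent wells (0) and 1 nM ANP wells (1).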

[2] = Detection of test substance in rat plasma by LC-MS/MS (Test Example 3); type: in vivo; details: rat plasma, 100 nmol/kg i.v., LC-MS/MS; time at which the test substance was finally detected
In short: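 Reported as final detection time: LC-MS/MS measured test substance in rat plasma collected from the jugular vein at 15, 30, 60, 90, 120, 180 and 240 min post-dose. Sample prep used a labelled hANP internal standard, acidic solvent, and sequential 50K then 3K ultrafiltration, keeping the 3K retentate.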

SMILES	EC50 [1]	Maximum time of detection after administration [2]
CC[C@H](C)[C@@H]1NC(=O)[C@H](CCCNC(=N)N)NC(=O)[C@H](CC(=O)O)NC(=O)[C@H](CCSC)NC(=O)[C@H](CCCNC(=N)N)NC(=O)CNC(=O)CNC(=O)[C@H](Cc2ccccc2)NC(=O)[C@@H](NC(=O)[C@H](CO)NC(=O)[C@H](CO)NC(=O)[C@H](CCCNC(=N)N)NC(=O)[C@H](CCCNC(=N)N)NC(=O)[C@H](CC(C)C)NC(=O)[C@H](CO)NC(=O)CNC(=O)[C@H](CCCCNC(=O)CO[C@@H]2O[C@H](CO)[C@@H](O[C@@H]3O[C@H](CO)[C@@H](O[C@@H]4O[C@H](CO[C@H]5O[C@H](CO)[C@@H](O)[C@H](O)[C@@H]5O[C@@H]5O[C@H](CO)[C@@H](O[C@@H]6O[C@H](CO[C@]7(C(=O)O)C[C@H](O)[C@@H](NC(C)=O)[C@H]([C@H](O)[C@H](O)CO)O7)[C@H](O)[C@H](O)[C@H]6O)[C@H](O)[C@H]5NC(C)=O)[C@@H](O)[C@H](O[C@H]5O[C@H](CO)[C@@H](O)[C@H](O)[C@@H]5O[C@@H]5O[C@H](CO)[C@@H](O[C@@H]6O[C@H](CO[C@]7(C(=O)O)C[C@H](O)[C@@H](NC(C)=O)[C@H]([C@H](O)[C@H](O)CO)O7)[C@H](O)[C@H](O)[C@H]6O)[C@H](O)[C@H]5NC(C)=O)[C@@H]4O)[C@H](O)[C@H]3NC(C)=O)[C@H](O)[C@H]2NC(C)=O)NC(=O)CO[C@@H]2O[C@H](CO)[C@@H](O[C@@H]3O[C@H](CO)[C@@H](O[C@@H]4O[C@H](CO[C@H]5O[C@H](CO)[C@@H](O)[C@H](O)[C@@H]5O[C@@H]5O[C@H](CO)[C@@H](O[C@@H]6O[C@H](CO[C@]7(C(=O)O)C[C@H](O)[C@@H](NC(C)=O)[C@H]([C@H](O)[C@H](O)CO)O7)[C@H](O)[C@H](O)[C@H]6O)[C@H](O)[C@H]5NC(C)=O)[C@@H](O)[C@H](O[C@H]5O[C@H](CO)[C@@H](O)[C@H](O)[C@@H]5O[C@@H]5O[C@H](CO)[C@@H](O[C@@H]6O[C@H](CO[C@]7(C(=O)O)C[C@H](O)[C@@H](NC(C)=O)[C@H]([C@H](O)[C@H](O)CO)O7)[C@H](O)[C@H](O)[C@H]6O)[C@H](O)[C@H]5NC(C)=O)[C@@H]4O)[C@H](O)[C@H]3NC(C)=O)[C@H](O)[C@H]2NC(C)=O)CSSC[C@@H](C(=O)N[C@@H](CC(N)=O)C(=O)N[C@@H](CO)C(=O)N[C@@H](Cc2ccccc2)C(=O)N[C@@H](CCCNC(=N)N)C(=O)N[C@@H](Cc2ccc(O)cc2)C(=O)O)NC(=O)CNC(=O)[C@H](CC(C)C)NC(=O)CNC(=O)[C@H](CO)NC(=O)[C@H](CCC(N)=O)NC(=O)[C@H](C)NC(=O)CNC1=O [Compound 2-14, SG-(SG-)Lys-Gly-hANP(1-28)]	0.6 nM	1.5 h
CC[C@H](C)[C@@H]1NC(=O)[C@H](CCCNC(=N)N)NC(=O)[C@H](CC(=O)O)NC(=O)[C@H](CCSC)NC(=O)[C@H](CCCNC(=N)N)NC(=O)CNC(=O)CNC(=O)[C@H](Cc2ccccc2)NC(=O)[C@@H](NC(=O)[C@H](CO)NC(=O)[C@H](CO)NC(=O)[C@H](CCCNC(=N)N)NC(=O)[C@H](CCCNC(=N)N)NC(=O)[C@H](CC(C)C)NC(=O)[C@H](CO)NC(=O)CCOCCOCCOCCOCCNC(=O)[C@H](CC(=O)N[C@@H]2O[C@H](CO)[C@@H](O[C@@H]3O[C@H](CO)[C@@H](O[C@@H]4O[C@H](CO[C@H]5O[C@H](CO)[C@@H](O)[C@H](O)[C@@H]5O[C@@H]5O[C@H](CO)[C@@H](O[C@@H]6O[C@H](CO[C@]7(C(=O)O)C[C@H](O)[C@@H](NC(C)=O)[C@H]([C@H](O)[C@H](O)CO)O7)[C@H](O)[C@H](O)[C@H]6O)[C@H](O)[C@H]5NC(C)=O)[C@@H](O)[C@H](O[C@H]5O[C@H](CO)[C@@H](O)[C@H](O)[C@@H]5O[C@@H]5O[C@H](CO)[C@@H](O[C@@H]6O[C@H](CO[C@]7(C(=O)O)C[C@H](O)[C@@H](NC(C)=O)[C@H]([C@H](O)[C@H](O)CO)O7)[C@H](O)[C@H](O)[C@H]6O)[C@H](O)[C@H]5NC(C)=O)[C@@H]4O)[C@H](O)[C@H]3NC(C)=O)[C@H](O)[C@H]2NC(C)=O)NC(=O)CO[C@@H]2O[C@H](CO)[C@@H](O[C@@H]3O[C@H](CO)[C@@H](O[C@@H]4O[C@H](CO[C@H]5O[C@H](CO)[C@@H](O)[C@H](O)[C@@H]5O[C@@H]5O[C@H](CO)[C@@H](O[C@@H]6O[C@H](CO[C@]7(C(=O)O)C[C@H](O)[C@@H](NC(C)=O)[C@H]([C@H](O)[C@H](O)CO)O7)[C@H](O)[C@H](O)[C@H]6O)[C@H](O)[C@H]5NC(C)=O)[C@@H](O)[C@H](O[C@H]5O[C@H](CO)[C@@H](O)[C@H](O)[C@@H]5O[C@@H]5O[C@H](CO)[C@@H](O[C@@H]6O[C@H](CO[C@]7(C(=O)O)C[C@H](O)[C@@H](NC(C)=O)[C@H]([C@H](O)[C@H](O)CO)O7)[C@H](O)[C@H](O)[C@H]6O)[C@H](O)[C@H]5NC(C)=O)[C@@H]4O)[C@H](O)[C@H]3NC(C)=O)[C@H](O)[C@H]2NC(C)=O)CSSC[C@@H](C(=O)N[C@@H](CC(N)=O)C(=O)N[C@@H](CO)C(=O)N[C@@H](Cc2ccccc2)C(=O)N[C@@H](CCCNC(=N)N)C(=O)N[C@@H](Cc2ccc(O)cc2)C(=O)O)NC(=O)CNC(=O)[C@H](CC(C)C)NC(=O)CNC(=O)[C@H](CO)NC(=O)[C@H](CCC(N)=O)NC(=O)[C@H](C)NC(=O)CNC1=O [Compound 2-13, SG-(SG-)Asn-PEG(3)-hANP(1-28)]	0.34 nM	3 h
CC[C@H](C)[C@@H]1NC(=O)[C@H](CCCNC(=N)N)NC(=O)[C@H](CC(=O)O)NC(=O)[C@H](CCSC)NC(=O)[C@H](CCCNC(=N)N)NC(=O)CNC(=O)CNC(=O)[C@H](Cc2ccccc2)NC(=O)[C@@H](NC(=O)[C@H](CO)NC(=O)[C@H](CO)NC(=O)[C@H](CCCNC(=N)N)NC(=O)[C@H](CCCNC(=N)N)NC(=O)[C@H](CC(C)C)NC(=O)[C@H](CO)NC(=O)[C@H](CC(=O)N[C@@H]2O[C@H](CO)[C@@H](O[C@@H]3O[C@H](CO)[C@@H](O[C@@H]4O[C@H](CO[C@H]5O[C@H](CO)[C@@H](O)[C@H](O)[C@@H]5O[C@@H]5O[C@H](CO)[C@@H](O[C@@H]6O[C@H](CO[C@]7(C(=O)O)C[C@H](O)[C@@H](NC(C)=O)[C@H]([C@H](O)[C@H](O)CO)O7)[C@H](O)[C@H](O)[C@H]6O)[C@H](O)[C@H]5NC(C)=O)[C@@H](O)[C@H](O[C@H]5O[C@H](CO)[C@@H](O)[C@H](O)[C@@H]5O[C@@H]5O[C@H](CO)[C@@H](O[C@@H]6O[C@H](CO[C@]7(C(=O)O)C[C@H](O)[C@@H](NC(C)=O)[C@H]([C@H](O)[C@H](O)CO)O7)[C@H](O)[C@H](O)[C@H]6O)[C@H](O)[C@H]5NC(C)=O)[C@@H]4O)[C@H](O)[C@H]3NC(C)=O)[C@H](O)[C@H]2NC(C)=O)NC(=O)CCOCCOCCOCCOCCNC(=O)CO[C@@H]2O[C@H](CO)[C@@H](O[C@@H]3O[C@H](CO)[C@@H](O[C@@H]4O[C@H](CO[C@H]5O[C@H](CO)[C@@H](O)[C@H](O)[C@@H]5O[C@@H]5O[C@H](CO)[C@@H](O[C@@H]6O[C@H](CO[C@]7(C(=O)O)C[C@H](O)[C@@H](NC(C)=O)[C@H]([C@H](O)[C@H](O)CO)O7)[C@H](O)[C@H](O)[C@H]6O)[C@H](O)[C@H]5NC(C)=O)[C@@H](O)[C@H](O[C@H]5O[C@H](CO)[C@@H](O)[C@H](O)[C@@H]5O[C@@H]5O[C@H](CO)[C@@H](O[C@@H]6O[C@H](CO[C@]7(C(=O)O)C[C@H](O)[C@@H](NC(C)=O)[C@H]([C@H](O)[C@H](O)CO)O7)[C@H](O)[C@H](O)[C@H]6O)[C@H](O)[C@H]5NC(C)=O)[C@@H]4O)[C@H](O)[C@H]3NC(C)=O)[C@H](O)[C@H]2NC(C)=O)CSSC[C@@H](C(=O)N[C@@H](CC(N)=O)C(=O)N[C@@H](CO)C(=O)N[C@@H](Cc2ccccc2)C(=O)N[C@@H](CCCNC(=N)N)C(=O)N[C@@H](Cc2ccc(O)cc2)C(=O)O)NC(=O)CNC(=O)[C@H](CC(C)C)NC(=O)CNC(=O)[C@H](CO)NC(=O)[C@H](CCC(N)=O)NC(=O)[C@H](C)NC(=O)CNC1=O [Compound 2-16, SG-PEG(3)-(SG-)Asn-hANP(1-28)]	0.98 nM	2 h
